Data published in US20170190705A1, “Compositions and Methods for Inhibiting BMP” (THE BRIGHAM AND WOMAN'S HOSPITAL, INC., priority 2014, published 2017).

Tests used:
[1] = molecular target: MSK2 (Homo sapiens, UniProt O75676); experiment: Kinome profiling MSK2; assay type: biochemical; details: read-out: Inhibitory activity MSK2; for inhibition at 0.1 µM: 100 nM
Description: (§1) . The kinome-wide selectivity was determined following the methods previously reported by Mohedas et al., ACS Chem Biol 2013, 8, 1291-1302 and Sanvitale et al., PLoS One 2013, 8, e62721.

[2] = molecular target: T1, ALK5 (Homo sapiens, UniProt P36897); experiment: Thermal shift kinase assay ALK5; assay type: binding; details: for ΔTm at 10 µM: 10 μM inhibitor; for ΔT ALK5: Table 6
T1 construct: made in house
T1 sequence (P36897 34-503): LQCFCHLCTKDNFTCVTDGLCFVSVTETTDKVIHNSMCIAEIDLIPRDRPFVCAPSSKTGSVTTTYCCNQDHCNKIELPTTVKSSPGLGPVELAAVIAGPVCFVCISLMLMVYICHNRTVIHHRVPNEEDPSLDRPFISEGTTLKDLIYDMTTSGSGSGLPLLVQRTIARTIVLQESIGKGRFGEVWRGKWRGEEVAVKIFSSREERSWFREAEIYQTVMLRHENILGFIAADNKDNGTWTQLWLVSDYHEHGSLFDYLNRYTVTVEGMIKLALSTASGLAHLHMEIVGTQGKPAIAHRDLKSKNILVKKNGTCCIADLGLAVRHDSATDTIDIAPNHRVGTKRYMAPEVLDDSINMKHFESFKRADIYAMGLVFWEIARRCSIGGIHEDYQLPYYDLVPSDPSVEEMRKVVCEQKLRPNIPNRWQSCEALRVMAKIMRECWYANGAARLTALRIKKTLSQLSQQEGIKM
Description: Thermal melting experiments were performed using a Real Time PCR machine Mx3005p (Stratagene) with a protein concentration of 1-2 μM and 10 μM inhibitor as described by Niesen et al., Nat Protoc 2007, 2, 2212-21. Recombinant human kinases for DSF screening were prepared by SGC using the published methods of Sanvitale et al., PLoS One 2013, 8, e62721. The potency and selectivity of certain compounds of the invention based on thermal shift kinase and ligand induced transcriptional activity assays are shown in Table 2.

[3] = molecular target: PI3-K-α (Homo sapiens, UniProt P42336); experiment: Kinome profiling PI3-K-α; assay type: biochemical; details: read-out: Inhibitory activity PI3-K-α; for inhibition at 0.1 µM: 100 nM
Chain of PI3-K-α (P42336 whole entry): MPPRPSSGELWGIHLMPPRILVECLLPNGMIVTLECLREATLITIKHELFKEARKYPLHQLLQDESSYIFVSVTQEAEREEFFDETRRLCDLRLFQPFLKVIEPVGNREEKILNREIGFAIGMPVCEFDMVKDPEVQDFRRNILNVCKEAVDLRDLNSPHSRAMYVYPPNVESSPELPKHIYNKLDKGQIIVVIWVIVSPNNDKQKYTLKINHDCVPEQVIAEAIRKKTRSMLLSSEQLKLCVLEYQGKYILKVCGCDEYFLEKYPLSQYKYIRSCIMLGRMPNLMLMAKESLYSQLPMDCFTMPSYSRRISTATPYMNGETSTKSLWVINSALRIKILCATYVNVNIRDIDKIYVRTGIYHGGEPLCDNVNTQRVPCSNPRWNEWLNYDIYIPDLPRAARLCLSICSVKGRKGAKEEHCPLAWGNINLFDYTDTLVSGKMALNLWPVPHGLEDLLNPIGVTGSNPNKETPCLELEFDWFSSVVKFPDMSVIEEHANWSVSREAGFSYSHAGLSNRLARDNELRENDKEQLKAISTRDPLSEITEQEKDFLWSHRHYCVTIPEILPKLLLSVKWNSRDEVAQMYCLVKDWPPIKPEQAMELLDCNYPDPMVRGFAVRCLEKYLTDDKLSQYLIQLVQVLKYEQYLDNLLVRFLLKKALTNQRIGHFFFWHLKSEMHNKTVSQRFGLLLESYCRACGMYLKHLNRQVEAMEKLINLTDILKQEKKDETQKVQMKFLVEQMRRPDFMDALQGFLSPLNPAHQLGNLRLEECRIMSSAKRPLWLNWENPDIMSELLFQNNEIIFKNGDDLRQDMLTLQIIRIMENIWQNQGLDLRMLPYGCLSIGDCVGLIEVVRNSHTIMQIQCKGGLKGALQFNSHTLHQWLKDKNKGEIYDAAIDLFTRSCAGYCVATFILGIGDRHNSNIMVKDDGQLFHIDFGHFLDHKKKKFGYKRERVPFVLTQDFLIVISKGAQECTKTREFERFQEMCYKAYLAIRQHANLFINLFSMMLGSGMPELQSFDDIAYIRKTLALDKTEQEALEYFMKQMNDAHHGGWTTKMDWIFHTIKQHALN
Chain of PI3-K-α (P27986 whole entry partner): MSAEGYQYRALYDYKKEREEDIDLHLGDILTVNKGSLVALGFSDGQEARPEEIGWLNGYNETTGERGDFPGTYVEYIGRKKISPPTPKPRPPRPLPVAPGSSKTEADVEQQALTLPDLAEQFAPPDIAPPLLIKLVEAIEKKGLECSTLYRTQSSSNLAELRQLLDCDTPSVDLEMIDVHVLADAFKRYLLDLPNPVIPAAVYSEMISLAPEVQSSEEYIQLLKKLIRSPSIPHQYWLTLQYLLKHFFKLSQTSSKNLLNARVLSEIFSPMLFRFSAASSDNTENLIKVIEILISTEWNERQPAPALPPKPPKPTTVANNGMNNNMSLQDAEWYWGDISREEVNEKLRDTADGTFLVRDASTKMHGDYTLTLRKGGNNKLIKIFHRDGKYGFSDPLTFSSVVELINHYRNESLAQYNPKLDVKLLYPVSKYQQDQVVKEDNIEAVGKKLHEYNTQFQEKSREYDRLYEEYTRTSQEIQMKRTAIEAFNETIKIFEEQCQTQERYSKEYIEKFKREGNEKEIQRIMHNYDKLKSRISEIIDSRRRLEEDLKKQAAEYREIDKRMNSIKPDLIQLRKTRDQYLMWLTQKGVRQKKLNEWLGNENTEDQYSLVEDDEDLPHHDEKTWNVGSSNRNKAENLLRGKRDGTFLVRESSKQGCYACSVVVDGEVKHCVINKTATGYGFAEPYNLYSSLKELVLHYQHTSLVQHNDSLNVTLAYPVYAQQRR
Description: as §1

[4] = molecular target: T2, ARK5 (Homo sapiens, UniProt O60285); experiment: Kinome profiling ARK5; assay type: biochemical; details: read-out: Inhibitory activity ARK5; for inhibition at 0.1 µM: 100 nM
T2 sequence (O60285 1-661): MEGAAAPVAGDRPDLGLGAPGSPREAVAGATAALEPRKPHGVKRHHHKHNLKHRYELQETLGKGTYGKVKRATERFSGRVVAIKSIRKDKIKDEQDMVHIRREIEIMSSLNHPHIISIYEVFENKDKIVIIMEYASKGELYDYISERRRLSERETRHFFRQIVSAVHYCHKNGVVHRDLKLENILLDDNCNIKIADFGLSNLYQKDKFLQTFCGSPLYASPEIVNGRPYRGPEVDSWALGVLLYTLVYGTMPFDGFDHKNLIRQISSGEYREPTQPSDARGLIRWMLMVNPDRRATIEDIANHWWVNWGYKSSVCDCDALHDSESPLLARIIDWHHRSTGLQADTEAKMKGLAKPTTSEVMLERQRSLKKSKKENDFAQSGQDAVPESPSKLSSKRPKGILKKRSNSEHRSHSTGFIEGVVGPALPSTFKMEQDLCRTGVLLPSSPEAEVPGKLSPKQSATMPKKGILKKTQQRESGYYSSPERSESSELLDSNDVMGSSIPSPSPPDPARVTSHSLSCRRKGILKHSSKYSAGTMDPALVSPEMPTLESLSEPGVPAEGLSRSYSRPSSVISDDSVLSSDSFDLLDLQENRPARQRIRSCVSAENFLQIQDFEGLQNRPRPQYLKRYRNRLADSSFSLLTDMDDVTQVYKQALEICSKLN
Description: as §1

[5] = molecular target: T3, PRKD3 (Homo sapiens, UniProt O94806); experiment: Kinome profiling PRKD3; assay type: biochemical; details: read-out: Inhibitory activity PRKD3; for inhibition at 0.1 µM: 100 nM
T3 sequence (O94806 1-890): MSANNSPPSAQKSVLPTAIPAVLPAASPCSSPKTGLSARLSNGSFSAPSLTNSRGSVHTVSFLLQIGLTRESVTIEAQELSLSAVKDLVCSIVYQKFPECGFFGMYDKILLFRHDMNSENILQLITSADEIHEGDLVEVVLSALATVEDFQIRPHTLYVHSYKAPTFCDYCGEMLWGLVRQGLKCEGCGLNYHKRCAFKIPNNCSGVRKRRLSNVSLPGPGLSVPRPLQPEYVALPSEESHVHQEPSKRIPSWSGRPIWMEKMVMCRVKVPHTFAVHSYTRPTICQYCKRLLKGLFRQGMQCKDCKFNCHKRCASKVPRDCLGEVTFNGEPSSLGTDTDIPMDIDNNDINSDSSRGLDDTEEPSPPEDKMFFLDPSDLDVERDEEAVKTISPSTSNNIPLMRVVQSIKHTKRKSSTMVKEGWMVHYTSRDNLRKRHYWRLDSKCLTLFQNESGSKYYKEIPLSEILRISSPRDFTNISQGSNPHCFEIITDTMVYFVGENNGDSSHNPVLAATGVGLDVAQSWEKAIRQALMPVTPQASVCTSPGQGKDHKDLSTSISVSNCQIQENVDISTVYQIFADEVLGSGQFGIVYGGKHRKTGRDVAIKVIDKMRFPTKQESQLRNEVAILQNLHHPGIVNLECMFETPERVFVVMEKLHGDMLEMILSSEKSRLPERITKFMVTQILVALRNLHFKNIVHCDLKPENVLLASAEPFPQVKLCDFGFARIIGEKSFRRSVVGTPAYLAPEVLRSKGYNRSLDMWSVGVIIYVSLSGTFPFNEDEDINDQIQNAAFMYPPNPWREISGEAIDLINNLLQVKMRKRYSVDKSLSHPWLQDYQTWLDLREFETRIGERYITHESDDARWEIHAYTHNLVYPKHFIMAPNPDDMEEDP
Description: as §1

[6] = molecular target: SRPK1 (Homo sapiens, UniProt Q96SB4); experiment: Kinome profiling SRPK1; assay type: biochemical; details: read-out: Inhibitory activity SRPK1; for inhibition at 0.1 µM: 100 nM
Chain of SRPK1 (Q96SB4 whole entry): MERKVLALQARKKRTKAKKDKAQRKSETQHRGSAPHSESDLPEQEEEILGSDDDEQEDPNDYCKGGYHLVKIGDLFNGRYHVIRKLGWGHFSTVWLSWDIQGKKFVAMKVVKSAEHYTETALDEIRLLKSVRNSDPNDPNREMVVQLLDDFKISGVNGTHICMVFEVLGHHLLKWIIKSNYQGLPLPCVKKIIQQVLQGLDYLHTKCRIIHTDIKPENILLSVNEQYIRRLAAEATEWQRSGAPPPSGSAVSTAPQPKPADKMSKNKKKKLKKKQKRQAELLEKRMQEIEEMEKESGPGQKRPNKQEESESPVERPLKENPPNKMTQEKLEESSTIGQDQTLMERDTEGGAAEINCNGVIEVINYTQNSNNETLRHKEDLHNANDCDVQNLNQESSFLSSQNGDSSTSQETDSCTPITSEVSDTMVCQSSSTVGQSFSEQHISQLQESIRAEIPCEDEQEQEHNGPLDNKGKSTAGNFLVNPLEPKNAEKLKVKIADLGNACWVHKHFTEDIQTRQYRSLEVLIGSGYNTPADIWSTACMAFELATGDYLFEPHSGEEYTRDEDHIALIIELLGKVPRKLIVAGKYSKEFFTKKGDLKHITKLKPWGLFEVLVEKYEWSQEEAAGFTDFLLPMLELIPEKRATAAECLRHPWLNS
Description: as §1

[7] = molecular target: RET (Homo sapiens, UniProt P07949); experiment: Kinome profiling RET; assay type: biochemical; details: read-out: Inhibitory activity RET; for inhibition at 0.1 µM: 100 nM
Chain of RET (P07949 29-1114): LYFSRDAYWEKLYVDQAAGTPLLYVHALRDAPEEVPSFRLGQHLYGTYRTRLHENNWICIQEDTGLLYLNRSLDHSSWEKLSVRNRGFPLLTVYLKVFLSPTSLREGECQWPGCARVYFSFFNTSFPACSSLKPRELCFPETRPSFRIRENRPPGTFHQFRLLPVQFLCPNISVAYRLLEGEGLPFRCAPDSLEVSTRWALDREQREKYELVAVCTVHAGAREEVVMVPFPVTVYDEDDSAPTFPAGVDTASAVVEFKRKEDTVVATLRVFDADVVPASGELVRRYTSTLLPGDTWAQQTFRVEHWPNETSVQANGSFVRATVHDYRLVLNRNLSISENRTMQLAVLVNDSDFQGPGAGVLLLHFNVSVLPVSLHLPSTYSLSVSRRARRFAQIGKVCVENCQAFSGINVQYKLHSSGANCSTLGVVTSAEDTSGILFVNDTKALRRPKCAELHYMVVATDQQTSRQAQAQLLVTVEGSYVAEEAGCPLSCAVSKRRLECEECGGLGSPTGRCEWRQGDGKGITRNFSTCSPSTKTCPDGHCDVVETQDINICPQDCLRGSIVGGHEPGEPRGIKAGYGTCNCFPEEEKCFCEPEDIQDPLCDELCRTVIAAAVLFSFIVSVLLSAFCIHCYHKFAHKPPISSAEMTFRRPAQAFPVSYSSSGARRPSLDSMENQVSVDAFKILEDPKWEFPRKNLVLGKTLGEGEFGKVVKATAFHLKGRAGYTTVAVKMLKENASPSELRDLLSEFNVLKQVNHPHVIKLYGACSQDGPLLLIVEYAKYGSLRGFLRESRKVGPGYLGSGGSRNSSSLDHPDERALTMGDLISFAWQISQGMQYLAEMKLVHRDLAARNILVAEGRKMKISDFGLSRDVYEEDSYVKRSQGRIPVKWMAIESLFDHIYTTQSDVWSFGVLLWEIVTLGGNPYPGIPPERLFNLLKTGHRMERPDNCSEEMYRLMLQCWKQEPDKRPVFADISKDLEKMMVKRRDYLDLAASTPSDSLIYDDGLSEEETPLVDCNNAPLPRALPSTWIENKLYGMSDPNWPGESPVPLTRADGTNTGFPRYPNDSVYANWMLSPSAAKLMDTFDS
Description: as §1

[8] = molecular target: PLK1 (Homo sapiens, UniProt P53350); experiment: Kinome profiling PLK1; assay type: biochemical; details: read-out: Inhibitory activity PLK1; for inhibition at 0.1 µM: 100 nM
Chain of PLK1 (P53350 whole entry): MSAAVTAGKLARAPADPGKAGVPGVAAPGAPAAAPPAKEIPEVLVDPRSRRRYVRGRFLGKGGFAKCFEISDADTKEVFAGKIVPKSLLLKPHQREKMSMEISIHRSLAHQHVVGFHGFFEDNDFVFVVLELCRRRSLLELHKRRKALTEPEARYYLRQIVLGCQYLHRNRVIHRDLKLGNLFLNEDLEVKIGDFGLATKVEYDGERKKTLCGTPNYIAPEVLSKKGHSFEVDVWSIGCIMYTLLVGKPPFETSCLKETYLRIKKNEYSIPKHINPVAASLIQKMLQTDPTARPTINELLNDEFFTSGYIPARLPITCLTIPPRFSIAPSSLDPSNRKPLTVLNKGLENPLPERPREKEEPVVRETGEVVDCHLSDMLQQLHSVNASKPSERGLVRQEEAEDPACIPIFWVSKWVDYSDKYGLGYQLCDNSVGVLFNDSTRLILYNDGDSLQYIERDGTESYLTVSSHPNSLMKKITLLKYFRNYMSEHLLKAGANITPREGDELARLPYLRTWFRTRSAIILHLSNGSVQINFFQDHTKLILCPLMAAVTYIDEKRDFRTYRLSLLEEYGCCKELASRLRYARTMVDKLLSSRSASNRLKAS
Description: as §1

Chain of MSK2 (O75676 whole entry): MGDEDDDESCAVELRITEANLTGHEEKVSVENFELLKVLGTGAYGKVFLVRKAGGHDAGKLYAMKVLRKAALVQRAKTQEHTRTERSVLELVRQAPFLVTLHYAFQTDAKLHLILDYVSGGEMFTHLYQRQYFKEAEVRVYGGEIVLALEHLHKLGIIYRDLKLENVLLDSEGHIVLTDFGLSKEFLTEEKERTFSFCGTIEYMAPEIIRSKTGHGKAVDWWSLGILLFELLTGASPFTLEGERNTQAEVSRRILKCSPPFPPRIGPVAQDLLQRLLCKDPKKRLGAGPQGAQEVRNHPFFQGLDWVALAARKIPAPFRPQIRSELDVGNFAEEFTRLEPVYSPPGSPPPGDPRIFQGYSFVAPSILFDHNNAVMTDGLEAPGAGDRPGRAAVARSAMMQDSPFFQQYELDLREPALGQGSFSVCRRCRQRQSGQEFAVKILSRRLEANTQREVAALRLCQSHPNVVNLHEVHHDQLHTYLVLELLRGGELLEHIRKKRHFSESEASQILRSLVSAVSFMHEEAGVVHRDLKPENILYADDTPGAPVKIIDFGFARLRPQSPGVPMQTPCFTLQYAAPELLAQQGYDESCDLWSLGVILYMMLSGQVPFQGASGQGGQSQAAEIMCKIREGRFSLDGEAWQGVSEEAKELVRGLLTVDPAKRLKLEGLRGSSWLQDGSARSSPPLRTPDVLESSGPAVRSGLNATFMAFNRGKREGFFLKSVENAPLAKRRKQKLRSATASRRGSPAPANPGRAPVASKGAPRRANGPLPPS

SMILES: COc1cc(-c2cc(-c3ccc(N4CCNCC4)cc3)cnc2N)cc(OC)c1OC [Compound 15, 5-(4-(piperazin-1-yl)phenyl)-3-(3,4,5-trimethoxyphenyl)pyridin-2-amine]
- inhibition at 0.1 µM [1]: 1%
- inhibition at 1 µM [1]: -1%
- ΔTm at 10 µM [2]: 13.9 °C
- ΔT ALK5 [2]: 13.9 °C
- inhibition at 0.1 µM [3]: 4%
- inhibition at 1 µM [3]: 4%
- inhibition at 0.1 µM [4]: 2%
- inhibition at 1 µM [4]: 8%
- inhibition at 0.1 µM [5]: 7%
- inhibition at 1 µM [5]: 38%
- inhibition at 0.1 µM [6]: 1%
- inhibition at 1 µM [6]: -1%
- inhibition at 0.1 µM [7]: 8%
- inhibition at 1 µM [7]: 8%
- inhibition at 0.1 µM [8]: 3%
- inhibition at 1 µM [8]: 1%

SMILES: COc1cc(-c2cc(-c3ccc(N4CCNCC4)cc3)cnc2C)cc(OC)c1OC [Compound 10, 1-(4-(6-methyl-5-(3,4,5-trimethoxyphenyl)pyridin-3-yl)phenyl)piperazine]
- inhibition at 0.1 µM [1]: 0%
- inhibition at 1 µM [1]: 1%
- ΔTm at 10 µM [2]: 9.7 °C
- ΔT ALK5 [2]: 9.7 °C
- inhibition at 0.1 µM [3]: 5%
- inhibition at 1 µM [3]: 7%
- inhibition at 0.1 µM [4]: 1%
- inhibition at 1 µM [4]: 1%
- inhibition at 0.1 µM [5]: 2%
- inhibition at 1 µM [5]: 21%
- inhibition at 0.1 µM [6]: 2%
- inhibition at 1 µM [6]: 2%
- inhibition at 0.1 µM [7]: 2%
- inhibition at 1 µM [7]: 2%
- inhibition at 0.1 µM [8]: 4%
- inhibition at 1 µM [8]: 3%
